For orientation: IC50 means the concentration that inhibits the measured activity by half. The term EC50 denotes the concentration that produces a half-maximal response.

For one data set, the target named is T1, hERG S649A (Homo sapiens, UniProt Q12809, S649A).
T1 construct: expressed in transfected cells; host or cells: CHO-K1 CCL-61 (ATCC), transient, co-transfected with pcDNA3-GFP
As to the kind of experiment: Manual patch-clamp (MPC) on hERG S649A, transiently transfected CHO-K1 cells. The data set is classed as cell-based. An excerpt: The hERG wild-type and Y652A constructs were kindly provided by Dr. Nicole Schmitt, and the eGFP-pcDNA3 construct was kindly provided by Dr. Antonios Pantazis. The S624A and S649A constructs were generated in-house from the wild-type template using the QuikChange II XL Site-Directed Mutagenesis Kit (Agilent Technologies, Santa Clara, CA, USA), in accordance with the manufacturer’s instructions. Mutagenesis primers were designed using the Agilent QuikChange Primer Design Program. Briefly, PCR amplification was performed according to the recommended cycling conditions, followed by DpnI digestion for 1 h to selectively degrade the parental (methylated) DNA template. The reaction products were then transformed into XL10-Gold ultracompetent cells. All constructs were verified by whole-plasmid sequencing (Eurofins Genomics, Germany) to confirm sequence accuracy.
Manual patch-clamp (MPC) recordings were performed 24–48 h post-transfection. Patch pipettes were pulled from borosilicate glass and had resistances of 4–7 MΩ when filled with intracellular solution. Coverslips with CHO-K1 cells were placed in a recording chamber and continuously perfused at room temperature (22–24 °C) with extracellular solution using a gravity-fed perfusion system. […] Compounds were applied to the recorded cells by a pressurized, automated OctaFlow perfusion system (ALA Scientific Instruments). […]
A general note: In patch-clamp work, channel activity is measured electrically.

For the next data set, the target named is hERG (KV11.1) (Homo sapiens, UniProt Q12809). In words: Automated planar patch-clamp (APC, QPatch II 48), voltage-ladder protocol, CHO cells stably expressing human hERG.
In the next data set the target is T2, human CB1 receptor (Homo sapiens, UniProt P21554).
T2 construct: host or cells: CHO-K1 stably expressing CB1, apoaequorin and Gα16
As to the kind of experiment: AequoScreen intracellular calcium release assay, CHO-K1 cells stably expressing CB1. To be noted: n ≥ 3 (JWH-030 n = 2). The data set is classed as cell-based. Background: A change in cytosolic calcium serves as a functional read-out for many receptors and channels.

hERG (KV11.1), sequence (Q12809 whole entry): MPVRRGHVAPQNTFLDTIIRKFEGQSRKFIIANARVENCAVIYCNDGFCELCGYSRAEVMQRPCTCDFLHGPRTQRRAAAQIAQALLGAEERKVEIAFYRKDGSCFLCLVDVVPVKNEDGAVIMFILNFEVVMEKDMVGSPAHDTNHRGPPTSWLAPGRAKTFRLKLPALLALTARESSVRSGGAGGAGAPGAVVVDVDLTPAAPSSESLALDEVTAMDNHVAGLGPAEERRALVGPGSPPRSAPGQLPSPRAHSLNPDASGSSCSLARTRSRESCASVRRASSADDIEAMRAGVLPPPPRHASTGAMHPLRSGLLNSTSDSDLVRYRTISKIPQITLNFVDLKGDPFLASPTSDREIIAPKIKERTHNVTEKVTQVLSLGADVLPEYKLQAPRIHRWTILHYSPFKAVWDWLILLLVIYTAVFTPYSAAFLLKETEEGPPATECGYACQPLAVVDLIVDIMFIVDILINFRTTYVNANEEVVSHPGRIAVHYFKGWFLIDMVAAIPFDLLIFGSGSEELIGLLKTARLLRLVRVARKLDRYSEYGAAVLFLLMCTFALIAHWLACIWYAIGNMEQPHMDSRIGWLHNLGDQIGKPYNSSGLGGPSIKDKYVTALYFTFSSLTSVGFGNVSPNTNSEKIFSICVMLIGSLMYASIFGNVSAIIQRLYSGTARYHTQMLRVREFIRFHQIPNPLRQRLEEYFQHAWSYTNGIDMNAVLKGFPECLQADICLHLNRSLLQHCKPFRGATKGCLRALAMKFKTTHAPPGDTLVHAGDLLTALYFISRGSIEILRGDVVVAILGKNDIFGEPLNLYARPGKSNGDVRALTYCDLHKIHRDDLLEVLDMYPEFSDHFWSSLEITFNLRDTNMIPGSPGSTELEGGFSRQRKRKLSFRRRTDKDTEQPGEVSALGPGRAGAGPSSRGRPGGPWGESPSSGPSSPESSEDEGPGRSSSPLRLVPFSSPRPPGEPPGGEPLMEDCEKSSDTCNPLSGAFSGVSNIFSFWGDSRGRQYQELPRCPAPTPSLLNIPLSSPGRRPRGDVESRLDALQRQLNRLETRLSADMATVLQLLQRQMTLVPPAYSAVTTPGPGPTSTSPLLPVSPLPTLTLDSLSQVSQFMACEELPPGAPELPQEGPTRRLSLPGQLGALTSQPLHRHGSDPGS
T2 sequence (P21554 whole entry): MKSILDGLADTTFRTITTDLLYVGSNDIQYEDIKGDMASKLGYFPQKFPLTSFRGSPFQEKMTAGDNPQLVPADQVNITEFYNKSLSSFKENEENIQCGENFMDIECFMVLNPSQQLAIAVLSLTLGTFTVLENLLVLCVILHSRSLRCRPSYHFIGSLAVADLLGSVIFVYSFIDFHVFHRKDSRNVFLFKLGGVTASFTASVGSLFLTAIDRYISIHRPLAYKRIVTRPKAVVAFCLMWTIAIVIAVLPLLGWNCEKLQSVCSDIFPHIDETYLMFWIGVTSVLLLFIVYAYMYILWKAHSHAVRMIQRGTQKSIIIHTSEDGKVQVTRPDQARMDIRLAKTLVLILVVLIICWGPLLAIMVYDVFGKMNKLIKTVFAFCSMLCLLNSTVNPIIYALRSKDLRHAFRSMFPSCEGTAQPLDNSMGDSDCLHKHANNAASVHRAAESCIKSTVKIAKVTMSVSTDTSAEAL
T1 sequence (Q12809 whole entry S649A): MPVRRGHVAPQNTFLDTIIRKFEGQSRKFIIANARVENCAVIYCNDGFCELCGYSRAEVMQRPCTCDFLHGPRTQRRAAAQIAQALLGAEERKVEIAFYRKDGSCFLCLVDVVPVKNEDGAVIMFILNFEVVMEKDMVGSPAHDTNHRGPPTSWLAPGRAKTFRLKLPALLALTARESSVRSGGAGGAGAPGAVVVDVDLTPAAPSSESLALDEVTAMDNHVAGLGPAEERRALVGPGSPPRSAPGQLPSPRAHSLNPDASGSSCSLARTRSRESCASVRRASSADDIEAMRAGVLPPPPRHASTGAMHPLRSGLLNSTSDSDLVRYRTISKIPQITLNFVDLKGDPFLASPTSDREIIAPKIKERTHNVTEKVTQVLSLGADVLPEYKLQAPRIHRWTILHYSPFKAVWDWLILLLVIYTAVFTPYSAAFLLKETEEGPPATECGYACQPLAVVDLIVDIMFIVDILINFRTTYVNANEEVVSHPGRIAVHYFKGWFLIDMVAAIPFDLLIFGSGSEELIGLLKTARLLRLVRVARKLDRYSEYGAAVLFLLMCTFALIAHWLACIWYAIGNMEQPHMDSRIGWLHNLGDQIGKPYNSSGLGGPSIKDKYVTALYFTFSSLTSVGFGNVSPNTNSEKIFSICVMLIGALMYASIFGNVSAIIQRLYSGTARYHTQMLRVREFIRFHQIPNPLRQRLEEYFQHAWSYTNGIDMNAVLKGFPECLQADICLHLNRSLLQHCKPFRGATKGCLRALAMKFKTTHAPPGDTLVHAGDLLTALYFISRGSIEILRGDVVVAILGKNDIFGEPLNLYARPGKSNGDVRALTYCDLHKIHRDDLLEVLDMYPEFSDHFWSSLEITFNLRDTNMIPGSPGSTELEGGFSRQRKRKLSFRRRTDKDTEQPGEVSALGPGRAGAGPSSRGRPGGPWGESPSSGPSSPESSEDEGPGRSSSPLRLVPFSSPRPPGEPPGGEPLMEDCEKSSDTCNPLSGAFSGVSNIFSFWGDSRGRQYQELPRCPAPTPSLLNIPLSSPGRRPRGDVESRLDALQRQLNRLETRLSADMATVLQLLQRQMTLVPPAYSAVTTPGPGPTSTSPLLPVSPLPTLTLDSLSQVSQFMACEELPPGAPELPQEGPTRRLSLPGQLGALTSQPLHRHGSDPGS

Turning to `COC(=O)C(NC(=O)c1nn(CCCCCF)c2ccccc12)C(C)(C)C` (stereo not drawn) [5F-MDMB-PINACA, methyl 2-{[1-(5-fluoropentyl)-1H-indazole-3-carbonyl]amino}-3,3-dimethylbutanoate], the IC50 on hERG S649A amounted to 16.7 µM; against hERG (KV11.1), 9 µM. For the same compound, the “effect on Gmax of hERG (in words)” value at hERG (KV11.1) (APC concentration-response, 1.11 to 30 µM) is listed as “one of the most prominent in reducing Gmax of hERG”. In addition, on hERG (KV11.1) (best fit, 1 = no reduction of Gmax, 0 = complete reduction, APC, 22 °C), the “hERG channel Efficacy (max reduction in Gmax) Gmin” value is 0.00. Besides, on human CB1 receptor (CB1 receptor Potency EC50, normalized to median EC50 of JWH-018), the 50% effective concentration (EC50) was determined as 0.00899 µM. Further, the “CB1 receptor Efficacy Emax” value at human CB1 receptor (normalized to maximum of JWH-018) was found to be 131 % JWH-018.
